Source: PMC2833169, “Anti-malarial activity of a non-piperidine library of next-generation quinoline methanols” (Malaria Journal, 2010)
In brackets after ≈: the same amount, converted by molar mass. Read-outs that look alike come from different tables or passages of the source.

How the values were obtained:
[1] = tested on: P. falciparum strain TM90C2A; assay: labeled hypoxanthine susceptibility assay, P. falciparum TM90C2A; assay type: cell-based, Plasmodium falciparum; settings: for CSI (C2A/W2): ratio of IC90 C2A to IC90 W2
Experimental: (§1) The in vitro activities of quinoline methanols against P. falciparum strains W2, D6, TM91C235, and TM90C2A were evaluated using the traditional labeled hypoxanthine assay of Desjardins et al as modified by Milhous et al. These four P. falciparum strains were selected since they have various levels of resistance to conventional anti-malarials.

P. falciparum strain W2 = assay: labeled hypoxanthine susceptibility assay, P. falciparum W2; assay type: cell-based, Plasmodium falciparum; settings: for IC90: Plasmodium falciparum
Experimental: as §1

P. falciparum strain D6 = assay: labeled hypoxanthine susceptibility assay, P. falciparum D6; assay type: cell-based, Plasmodium falciparum; settings: for IC90: Plasmodium falciparum
Experimental: as §1

[2] = tested on: P. falciparum strain TM91C235; assay: labeled hypoxanthine susceptibility assay, P. falciparum TM91C235; assay type: cell-based, Plasmodium falciparum; settings: for IC90: Plasmodium falciparum, read-out: PF C235 IC90
Experimental: as §1

[3] = tested on: rodent macrophage (RAW) cell line; assay: cells; settings: read-out: Macrophage IC50
Experimental: General cytotoxicity was assessed by first determining LC50 's against a rodent macrophage (RAW) cell line using the 3-(4,5-dimethylthiazole-2-yl)-2,5-diphenyltetrazolium bromide (MTT) assay as described in one of our earlier studies. This screen was conducted to identify compounds that may require de-selection due to generalized toxicity. […] In vitro neurocytotoxicity was assessed by determining LC50s against primary mouse neurons using the MTT assay as described previously. Inhibition of the A2A and A1 receptors was determined at 200 nM in duplicate by Caliper Biosciences (Hanover, Maryland).

[4] = Plasmodium falciparum, TM90C2A, read-out: IC90 PfC2A
[5] = D6, read-out: PF D6 IC90, P. falciparum D6
[6] = Plasmodium falciparum, TM90C2A, read-out: PF C2A IC90

| SMILES | IC90 [1, 4] [nM] | IC90 (P. falciparum strain W2; W2, read-out: PF W2 IC90) [ng/mL] | IC90 (P. falciparum strain D6; [5]) [µg/mL] | IC90 [2] [µg/mL] | IC90 [1, 6] [µg/mL] | CSI (C2A/W2) [1] | IC50 ([3]; Mus musculus, Macrophage) [µM] | other results |
| --- | --- | --- | --- | --- | --- | --- | --- | --- |
| CCCCN(CCCC)CC(O)c1cc(C(F)(F)F)nc2c(C(F)(F)F)cccc12 (racemic) [WR176990] | 44 | – | – | – | – | – | – | – |
| CCCNCC(O)c1cc(C(F)(F)F)nc2c(C(F)(F)F)cccc12 (racemic) [WR183544] | 40 | – | – | – | – | – | – | – |
| OC(CNC1CCCCC1)c1cc(C(F)(F)F)nc2c(C(F)(F)F)cccc12 (racemic) [WR308248] | 66 | – | – | – | – | – | – | – |
| OC(CNCCC1=CCCCC1)c1cc(C(F)(F)F)nc2c(C(F)(F)F)cccc12 (racemic) [WR308249] | 160 | – | – | – | – | – | – | – |
| OC(CNCCc1ccccc1)c1cc(C(F)(F)F)nc2c(C(F)(F)F)cccc12 (racemic) [WR308253] | 99 | – | – | – | – | – | – | – |
| CCN(CC)CC(O)c1cc(C(F)(F)F)nc2c(C(F)(F)F)cccc12 (racemic) [WR308254] | 176 | – | – | – | – | – | – | – |
| CC(C)N(CC(O)c1cc(C(F)(F)F)nc2c(C(F)(F)F)cccc12)C(C)C (racemic) [WR308277] | 75 | – | – | – | – | – | – | – |
| Cc1ccc(CNCC(O)c2cc(C(F)(F)F)nc3c(C(F)(F)F)cccc23)cc1 (racemic) [WR308375] | 103 | – | – | – | – | – | – | – |
| CCCCN(CCC#N)CC(O)c1cc(C(F)(F)F)nc2c(C(F)(F)F)cccc12 (racemic) [WR308485] | 204 | – | – | – | – | – | – | – |
| N#CCCN(CC(O)c1cc(C(F)(F)F)nc2c(C(F)(F)F)cccc12)C1CCCCC1 (racemic) [WR308486] | 144 | – | – | – | – | – | – | – |
| OC(CNc1nc2ccccc2[nH]1)c1cc(C(F)(F)F)nc2c(C(F)(F)F)cccc12 (racemic) [WR308491] | 190 | – | – | – | – | – | – | – |
| CC1CCN(CC(C)(C)NCC(O)c2cc(C(F)(F)F)nc3c(C(F)(F)F)cccc23)CC1 (racemic) [WR308592] | 137 | – | – | – | – | – | – | – |
| CCCCN(CCCC)CC(O)c1cc(C(F)(F)F)nc2c(C(F)(F)F)cccc12 (racemic) [compound 176990] | – | 2.39 (≈ 0.00548 µM) | 0.011 (≈ 0.0252 µM) | 0.027 (≈ 0.0619 µM) | 0.019 | 7.9 | 46 | – |
| CCCCNCC(O)c1cc(C(F)(F)F)nc2c(C(F)(F)F)cccc12 (racemic) [compound 177000] | – | 1.69 (≈ 0.00444 µM) | 0.00658 (≈ 0.0173 µM) | 0.00891 (≈ 0.0234 µM) | 0.0123 | 7.3 | 7.8 | – |
| CCCNCC(O)c1cc(C(F)(F)F)nc2c(C(F)(F)F)cccc12 (racemic) [compound 183544] | – | 1.1 (≈ 0.003 µM) | 0.0067 (≈ 0.0183 µM) | 0.014 (≈ 0.0382 µM) | 0.016 | 14.5 | – | – |
| OC(CNC1CCCCC1)c1cc(C(F)(F)F)nc2c(C(F)(F)F)cccc12 (racemic) [compound 308248] | – | 2.49 (≈ 0.00613 µM) | 0.00957 (≈ 0.0235 µM) | 0.0144 (≈ 0.0353 µM) | 0.027 | 10.8 | 19.8 | – |
| OC(CNCCC1=CCCCC1)c1cc(C(F)(F)F)nc2c(C(F)(F)F)cccc12 (racemic) [compound 308249] | – | 8.85 (≈ 0.0205 µM) | 0.033 (≈ 0.0762 µM) | 0.0392 (≈ 0.0906 µM) | 0.0693 | 7.8 | 27 | – |
| OC(CNCCc1ccccc1)c1cc(C(F)(F)F)nc2c(C(F)(F)F)cccc12 (racemic) [compound 308253] | – | 4.72 (≈ 0.011 µM) | 0.0191 (≈ 0.0446 µM) | 0.0229 (≈ 0.0536 µM) | 0.0425 | 9.0 | 22.5 | – |
| CCN(CC)CC(O)c1cc(C(F)(F)F)nc2c(C(F)(F)F)cccc12 (racemic) [compound 308254] | – | 9.01 (≈ 0.0237 µM) | 0.0264 (≈ 0.0694 µM) | 0.0365 (≈ 0.096 µM) | 0.0669 | 7.4 | 5.5 | – |
| OC(CN1CCCC1)c1cc(C(F)(F)F)nc2c(C(F)(F)F)cccc12 (racemic) [compound 308268] | – | – | – | – | – | 7.7 | – | PF W2 IC90 (P. falciparum strain W2; P. falciparum W2): 12.05 ng/mL; PF D6 IC90 (P. falciparum strain D6; P. falciparum D6): 47.02 ng/mL; PF C235 IC90 ([2]; P. falciparum TM91C235): 45.19 ng/mL; PF C2A IC90 ([1]; P. falciparum TM90C2A): 92.68 ng/mL; IC90 ([1]; calculated from ng/ml IC90 with MW in Column C, read-out: Pf C2A IC90 nM values calculated using MW in Column C): 245 nM; IC50 ([3]; RAW macrophages, range in brackets): 8.5 µM |
| CC(C)N(CC(O)c1cc(C(F)(F)F)nc2c(C(F)(F)F)cccc12)C(C)C (racemic) [compound 308277] | – | 4.52 (≈ 0.0111 µM) | 0.0195 (≈ 0.0477 µM) | 0.0209 (≈ 0.0512 µM) | 0.0305 | 6.7 | 81.2 | – |
| Cc1ccc(CNCC(O)c2cc(C(F)(F)F)nc3c(C(F)(F)F)cccc23)cc1 (racemic) [compound 308375] | – | 5.26 (≈ 0.0123 µM) | 0.0392 (≈ 0.0916 µM) | 0.0443 (≈ 0.103 µM) | 0.044 | 8.4 | > 100 | – |
| CCCCN(CCC#N)CC(O)c1cc(C(F)(F)F)nc2c(C(F)(F)F)cccc12 (racemic) [compound 308485] | – | 9.34 (≈ 0.0216 µM) | 0.0604 (≈ 0.139 µM) | 0.059 (≈ 0.136 µM) | 0.0883 | 9.5 | 46.6 | – |
| N#CCCN(CC(O)c1cc(C(F)(F)F)nc2c(C(F)(F)F)cccc12)C1CCCCC1 (racemic) [compound 308486] | – | 5.49 (≈ 0.0119 µM) | 0.0312 (≈ 0.0678 µM) | 0.0413 (≈ 0.0899 µM) | 0.0662 | 12.1 | 18.7 | – |
| OC(CNc1nc2ccccc2[nH]1)c1cc(C(F)(F)F)nc2c(C(F)(F)F)cccc12 (racemic) [compound 308491] | – | 21.9 (≈ 0.0498 µM) | 0.0482 (≈ 0.11 µM) | 0.0716 (≈ 0.163 µM) | 0.0835 | 3.8 | 15.4 | – |
| CC1CCN(CC(C)(C)NCC(O)c2cc(C(F)(F)F)nc3c(C(F)(F)F)cccc23)CC1 (racemic) [compound 308592] | – | 4.45 (≈ 0.00932 µM) | 0.0284 (≈ 0.0594 µM) | 0.0625 (≈ 0.131 µM) | 0.0653 | 14.7 | 38 | – |
| OC(c1cc(C(F)(F)F)nc2c(C(F)(F)F)cccc12)C1CCCCN1 (stereo not shown) [142490 (MQ)] | – | – | – | – | 0.071 | 6.5 | 7.27 | IC90 (P. falciparum strain W2; P. falciparum W2, read-out: PF W2 IC90): 11 ng/mL (≈ 0.0291 µM); IC90 (P. falciparum strain D6; P. falciparum D6, read-out: PF D6 IC90): 0.025 µg/mL (≈ 0.0661 µM); IC90 ([2]; P. falciparum TM91C235): 0.064 µg/mL (≈ 0.169 µM); IC90 ([1]; Plasmodium falciparum, TM90C2A, read-out: Pf C2A IC90 nM values calculated using MW in Column C): 171 nM |
